Measured values published in ChEMBL document CHEMBL1133392, “Synthesis of a dihydroxythiophene analogue of catechosporines” (2000).
Values after ≈ are worked out from the molar mass of the structure shown.

Key:
[1] = system: Staphylococcus aureus; assay: In vitro minimum inhibitory concentration against Staphylococcus aureus (20 strains); type: functional
[2] = system: Pseudomonas aeruginosa; assay: In vitro for minimum inhibitory concentration against Pseudomonas aeruginosa (40 strains); type: functional

MIC [1] | MIC [2] | SMILES
1.4 µg/mL (≈ 1.9 µM) | 0.06 µg/mL (≈ 0.0815 µM) | N#Cc1cc(C(O/N=C(\C(=O)N[C@@H]2C(=O)N3C(C(=O)[O-])C(/C=C/C[n+]4cccc5ccsc54)CS[C@H]23)c2csc(N)n2)C(=O)O)cc(O)c1O (stereo partly drawn)
0.17 µg/mL (≈ 0.231 µM) | 38 µg/mL (≈ 51.6 µM) | N#Cc1sc(C(O/N=C(\C(=O)N[C@@H]2C(=O)N3C(C(=O)[O-])C(/C=C/C[n+]4cccc5ccccc54)CS[C@H]23)c2csc(N)n2)C(=O)O)c(O)c1O (stereo partly drawn)
3.6 µg/mL (≈ 4.89 µM) | 0.12 µg/mL (≈ 0.163 µM) | N#Cc1ccc(C(O/N=C(\C(=O)N[C@@H]2C(=O)N3C(C(=O)[O-])C(/C=C/C[n+]4cccc5ccsc54)CS[C@H]23)c2csc(N)n2)C(=O)O)c(O)c1O (stereo partly drawn)
0.92 µg/mL (≈ 1.29 µM) | 3.12 µg/mL (≈ 4.38 µM) | Nc1nc(/C(=N/OC(C(=O)O)c2cc(O)c(O)cn2)C(=O)N[C@@H]2C(=O)N3C(C(=O)[O-])C(/C=C/C[n+]4cccc5ccsc54)CS[C@H]23)cs1 (stereo partly drawn)
